Values quoted from earlier work, collected in patent US7074553B2, “Retrovirus associated with myelodysplastic syndromes and uses thereof” (Rush University Medical Center, priority 2000, dated 2006).

B1: G-CSF: colony-stimulating growth factor designed to stimulate proliferation of hematopoietic progenitors (protein, UniProt P09919 31-207, looked up)
Granulocyte …: TPLGPASSLPQSFLLKCLEQVRKIQGDGAALQEKLVSECATYKLCHPEELVLLGHSLGIPWAPLSSCPSQALQLAGCLSQLHSGLFLYQGLLQALEGISPELGPTLDTLQLDVADFATTIWQQMEELGMAPALQPTQGAMPAFASAFQRRAGGVLVASHLQSFLEVSYRVLRHLAQP

System: anemia and thrombocytopenia of MDS patients
Conditions: administered as single agents

Row | Molecule | improvement of the anemia and the thrombocytopenia
1 | granulocyte-macrophage colony-stimulating factor [GM-CSF] | rarely improves
2 | B1 | rarely improves
